# ChEMBL document CHEMBL5126518, “Quercetin derivatives: Drug design, development, and biological activities, a review” (Eur J Med Chem, 2022)
# Key:
# Type in all cases: functional
# [1] = test system: Candida albicans; assay: Antifungal activity against Candida albicans 10/15 assessed as fungal growth inhibition measured after 24 hrs by microdilution assay
# [2] = test system: Candida albicans; assay: Antibiofilm activity against Candida albicans 475/15 assessed as inhibition of biofilm formation measured after 24 hrs by crystal violet staining based analysis relative to control; design: scale not given: the % may be the effect or the level left
# [3] = test system: Candida albicans; assay: Antifungal activity against Candida albicans 13/15 assessed as fungal growth inhibition measured after 24 hrs by microdilution assay
# [4] = test system: Candida albicans; assay: Antifungal activity against Candida albicans 475/15 assessed as fungal growth inhibition measured after 24 hrs by microdilution assay
# [5] = test system: Candida albicans; assay: Antifungal activity against Candida albicans 527/14 assessed as fungal growth inhibition measured after 24 hrs by microdilution assay
structure (smiles),measurement,setting,value
O=c1c(O[C@@H]2O[C@H](CO)[C@@H](O)[C@H](O)[C@H]2O)c(-c2ccc(O)c(O)c2)oc2cc(O)cc(O)c12 [ISOQUERCETIN],MIC,[1],37.5 µg/mL
same,Activity,[2],76%
same,MIC,[3],37.5 µg/mL
same,MIC,[4],37.5 µg/mL
same,MIC,[5],37.5 µg/mL
